Source: PubChem BioAssay AID2060893 (Molecular Pharmacology Branch, DTP, NCI, 2025)
Values belong to the compound of their own block, whether it stands above or below them.

System: K86415-001-R-J1-PDC complex spheroids, viability
Assay: Anticancer human tumor K86415-001-R-J1-PDC patient-derived lung adenocarcinoma cell line growth inhibition [RAS]
Conditions: for IC50: curve of first compound; for viability, T/C: stronger effect = lower value
Method in brief: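 Tumour cells grown as complex spheroids with HUVEC endothelial cells and mesenchymal stem cells, treated with RAS pathway inhibitor combinations. Each agent spans half-log steps from near clinical Cmax, or 10 microM where Cmax is unknown.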

[1] = second compound 0.000949 µM, first compound 0.0316 µM
[2] = second compound 0.000949 µM, first compound 0.1 µM
[3] = second compound 0.000949 µM, first compound 0.316 µM
[4] = second compound 0.000949 µM, first compound 1 µM
[5] = second compound 0.000949 µM, first compound 3.16 µM
[6] = second compound 0.000949 µM, first compound 10 µM
[7] = second compound 0.003 µM, first compound 0.0316 µM
[8] = second compound 0.003 µM, first compound 0.1 µM
[9] = second compound 0.003 µM, first compound 0.316 µM
[10] = second compound 0.003 µM, first compound 1 µM
[11] = second compound 0.003 µM, first compound 3.16 µM
[12] = second compound 0.003 µM, first compound 10 µM
[13] = second compound 0.00949 µM, first compound 0.0316 µM
[14] = second compound 0.00949 µM, first compound 0.1 µM
[15] = second compound 0.00949 µM, first compound 0.316 µM
[16] = second compound 0.00949 µM, first compound 1 µM
[17] = second compound 0.00949 µM, first compound 3.16 µM
[18] = second compound 0.00949 µM, first compound 10 µM
[19] = second compound 0.03 µM, first compound 0.0316 µM
[20] = second compound 0.03 µM, first compound 0.1 µM
[21] = second compound 0.03 µM, first compound 0.316 µM
[22] = second compound 0.03 µM, first compound 1 µM
[23] = second compound 0.03 µM, first compound 3.16 µM
[24] = second compound 0.03 µM, first compound 10 µM
[25] = second compound 0.0949 µM, first compound 0.0316 µM
[26] = second compound 0.0949 µM, first compound 0.1 µM
[27] = second compound 0.0949 µM, first compound 0.316 µM
[28] = second compound 0.0949 µM, first compound 1 µM
[29] = second compound 0.0949 µM, first compound 3.16 µM
[30] = second compound 0.0949 µM, first compound 10 µM
[31] = second compound 0.3 µM, first compound 0.0316 µM
[32] = second compound 0.3 µM, first compound 0.1 µM
[33] = second compound 0.3 µM, first compound 0.316 µM
[34] = second compound 0.3 µM, first compound 1 µM
[35] = second compound 0.3 µM, first compound 3.16 µM
[36] = second compound 0.3 µM, first compound 10 µM
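Also: spheroids exposed to agents for seven days before readout.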

- IC50 (second compound 0.000949 µM): 43 nM
- IC50 (second compound 0.003 µM): < 31.6 nM
- IC50 (second compound 0.00949 µM): < 31.6 nM
- IC50 (second compound 0.03 µM): < 31.6 nM
- IC50 (second compound 0.0949 µM): < 31.6 nM
- IC50 (second compound 0.3 µM): < 31.6 nM
Structure (SMILES): CC(C)NCC(C(=O)N1CCN(c2ncnc3c2C(C)CC3O)CC1)c1ccc(Cl)cc1 (stereo not drawn) + CCn1c(-c2cc(N3CCN(C)CC3)cnc2C(C)OC)c2c3cc(ccc31)-c1csc(n1)CC(NC(=O)C1CC1C)C(=O)N1CCCC(N1)C(=O)OCC(C)(C)C2
- viability, T/C [1]: 52.1%
- viability, T/C [2]: 48.3%
- viability, T/C [3]: 28.8%
- viability, T/C [4]: 31.1%
- viability, T/C [5]: 29%
- viability, T/C [6]: 13.3%
- viability, T/C [7]: 25%
- viability, T/C [8]: 15.2%
- viability, T/C [9]: 13.7%
- viability, T/C [10]: 16%
- viability, T/C [11]: 10.4%
- viability, T/C [12]: 3.32%
- viability, T/C [13]: 12.1%
- viability, T/C [14]: 15.4%
- viability, T/C [15]: 6.91%
- viability, T/C [16]: 4.13%
- viability, T/C [17]: 1.63%
- viability, T/C [18]: 1%
- viability, T/C [19]: 5.32%
- viability, T/C [20]: 4.39%
- viability, T/C [21]: 3.56%
- viability, T/C [22]: 1.38%
- viability, T/C [23]: 0.66%
- viability, T/C [24]: 0.65%
- viability, T/C [25]: 2.69%
- viability, T/C [26]: 3.08%
- viability, T/C [27]: 1.6%
- viability, T/C [28]: 0.75%
- viability, T/C [29]: 0.62%
- viability, T/C [30]: 0.56%
- viability, T/C [31]: 2.88%
- viability, T/C [32]: 1.88%
- viability, T/C [33]: 1.86%
- viability, T/C [34]: 0.88%
- viability, T/C [35]: 0.75%
- viability, T/C [36]: 0.84%

- IC50 (second compound 0.000949 µM): < 0.316 nM
- IC50 (second compound 0.003 µM): < 0.316 nM
- IC50 (second compound 0.00949 µM): < 0.316 nM
- IC50 (second compound 0.03 µM): < 0.316 nM
- IC50 (second compound 0.0949 µM): < 0.316 nM
- IC50 (second compound 0.3 µM): < 0.316 nM
Structure (SMILES): CC(C)n1nc(-c2ccc3oc(N)nc3c2)c2c(N)ncnc21 + CCn1c(-c2cc(N3CCN(C)CC3)cnc2C(C)OC)c2c3cc(ccc31)-c1csc(n1)CC(NC(=O)C1CC1C)C(=O)N1CCCC(N1)C(=O)OCC(C)(C)C2
- viability, T/C (second compound 0.000949 µM, first compound 0.000316 µM): 46.4%
- viability, T/C (second compound 0.000949 µM, first compound 0.001 µM): 46.7%
- viability, T/C (second compound 0.000949 µM, first compound 0.00316 µM): 39.5%
- viability, T/C (second compound 0.000949 µM, first compound 0.01 µM): 43.9%
- viability, T/C [1]: 35.4%
- viability, T/C [2]: 20.4%
- viability, T/C (second compound 0.003 µM, first compound 0.000316 µM): 23.1%
- viability, T/C (second compound 0.003 µM, first compound 0.001 µM): 17.4%
- viability, T/C (second compound 0.003 µM, first compound 0.00316 µM): 18.4%
- viability, T/C (second compound 0.003 µM, first compound 0.01 µM): 16.3%
- viability, T/C [7]: 23.8%
- viability, T/C [8]: 7.47%
- viability, T/C (second compound 0.00949 µM, first compound 0.000316 µM): 11.5%
- viability, T/C (second compound 0.00949 µM, first compound 0.001 µM): 9.33%
- viability, T/C (second compound 0.00949 µM, first compound 0.00316 µM): 9.17%
- viability, T/C (second compound 0.00949 µM, first compound 0.01 µM): 8.21%
- viability, T/C [13]: 3.17%
- viability, T/C [14]: 2.45%
- viability, T/C (second compound 0.03 µM, first compound 0.000316 µM): 5.52%
- viability, T/C (second compound 0.03 µM, first compound 0.001 µM): 4.5%
- viability, T/C (second compound 0.03 µM, first compound 0.00316 µM): 3.7%
- viability, T/C (second compound 0.03 µM, first compound 0.01 µM): 2.13%
- viability, T/C [19]: 0.97%
- viability, T/C [20]: 1.14%
- viability, T/C (second compound 0.0949 µM, first compound 0.000316 µM): 3.75%
- viability, T/C (second compound 0.0949 µM, first compound 0.001 µM): 3.4%
- viability, T/C (second compound 0.0949 µM, first compound 0.00316 µM): 2.07%
- viability, T/C (second compound 0.0949 µM, first compound 0.01 µM): 1.07%
- viability, T/C [25]: 0.49%
- viability, T/C [26]: 0.77%
- viability, T/C (second compound 0.3 µM, first compound 0.000316 µM): 2.48%
- viability, T/C (second compound 0.3 µM, first compound 0.001 µM): 2.57%
- viability, T/C (second compound 0.3 µM, first compound 0.00316 µM): 2.13%
- viability, T/C (second compound 0.3 µM, first compound 0.01 µM): 0.8%
- viability, T/C [31]: 0.57%
- viability, T/C [32]: 0.8%

- IC50 (second compound 0.000949 µM): < 31.6 nM
- IC50 (second compound 0.003 µM): < 31.6 nM
- IC50 (second compound 0.00949 µM): < 31.6 nM
- IC50 (second compound 0.03 µM): < 31.6 nM
- IC50 (second compound 0.0949 µM): < 31.6 nM
- IC50 (second compound 0.3 µM): < 31.6 nM
Structure (SMILES): CC(Nc1ccc2c(c1)OCCn1cc(N3C(=O)OCC3C(F)F)nc1-2)C(N)=O (stereo not drawn) + CCn1c(-c2cc(N3CCN(C)CC3)cnc2C(C)OC)c2c3cc(ccc31)-c1csc(n1)CC(NC(=O)C1CC1C)C(=O)N1CCCC(N1)C(=O)OCC(C)(C)C2
- viability, T/C [1]: 44.1%
- viability, T/C [2]: 28.2%
- viability, T/C [3]: 22.2%
- viability, T/C [4]: 20.6%
- viability, T/C [5]: 16.6%
- viability, T/C [6]: 6.57%
- viability, T/C [7]: 18.8%
- viability, T/C [8]: 12.9%
- viability, T/C [9]: 12.1%
- viability, T/C [10]: 8.44%
- viability, T/C [11]: 5.02%
- viability, T/C [12]: 1.84%
- viability, T/C [13]: 11.8%
- viability, T/C [14]: 4.96%
- viability, T/C [15]: 3.08%
- viability, T/C [16]: 2.36%
- viability, T/C [17]: 1.25%
- viability, T/C [18]: 0.72%
- viability, T/C [19]: 4.01%
- viability, T/C [20]: 1.42%
- viability, T/C [21]: 1.24%
- viability, T/C [22]: 1.2%
- viability, T/C [23]: 0.54%
- viability, T/C [24]: 0.63%
- viability, T/C [25]: 1.94%
- viability, T/C [26]: 1.08%
- viability, T/C [27]: 0.93%
- viability, T/C [28]: 0.62%
- viability, T/C [29]: 0.8%
- viability, T/C [30]: 0.59%
- viability, T/C [31]: 2.35%
- viability, T/C [32]: 0.93%
- viability, T/C [33]: 0.73%
- viability, T/C [34]: 0.47%
- viability, T/C [35]: 0.85%
- viability, T/C [36]: 0.49%

- IC50 (second compound 0.000949 µM): 4280 nM
- IC50 (second compound 0.003 µM): < 31.6 nM
- IC50 (second compound 0.00949 µM): < 31.6 nM
- IC50 (second compound 0.03 µM): < 31.6 nM
- IC50 (second compound 0.0949 µM): < 31.6 nM
- IC50 (second compound 0.3 µM): < 31.6 nM
Structure (SMILES): C[C@@H](NC(=O)c1ncnc(N)c1Cl)c1ncc(C(=O)Nc2cc(C(F)(F)F)c(Cl)cn2)s1 + CCn1c(-c2cc(N3CCN(C)CC3)cnc2C(C)OC)c2c3cc(ccc31)-c1csc(n1)CC(NC(=O)C1CC1C)C(=O)N1CCCC(N1)C(=O)OCC(C)(C)C2
- viability, T/C [1]: 58.2%
- viability, T/C [2]: 62.2%
- viability, T/C [3]: 53.7%
- viability, T/C [4]: 62.2%
- viability, T/C [5]: 57.1%
- viability, T/C [6]: 29.1%
- viability, T/C [7]: 34.8%
- viability, T/C [8]: 27.6%
- viability, T/C [9]: 32.1%
- viability, T/C [10]: 38.1%
- viability, T/C [11]: 33.4%
- viability, T/C [12]: 21.7%
- viability, T/C [13]: 12.9%
- viability, T/C [14]: 11.8%
- viability, T/C [15]: 11.9%
- viability, T/C [16]: 16.6%
- viability, T/C [17]: 15.4%
- viability, T/C [18]: 11.6%
- viability, T/C [19]: 6.75%
- viability, T/C [20]: 8.74%
- viability, T/C [21]: 8.31%
- viability, T/C [22]: 8.07%
- viability, T/C [23]: 8.51%
- viability, T/C [24]: 7.57%
- viability, T/C [25]: 5.52%
- viability, T/C [26]: 4.87%
- viability, T/C [27]: 4.23%
- viability, T/C [28]: 4.04%
- viability, T/C [29]: 4.24%
- viability, T/C [30]: 4.39%
- viability, T/C [31]: 3.5%
- viability, T/C [32]: 3.03%
- viability, T/C [33]: 4.17%
- viability, T/C [34]: 3.4%
- viability, T/C [35]: 4.53%
- viability, T/C [36]: 4.26%
